pIC50: −log10 of the molar value.

In one test the target is T1, gamma-secretase (partially purified extract of IMR-32 cell membranes; substrate MBP-C125 Swe fusion protein, cleavage at the Aβ40 site) (Homo sapiens, UniProt P49768).
T1 construct: a partially purified extract of IMR-32 cell membranes as the gamma-secretase enzyme preparation; endogenous in cells; host or cells: IMR-32 cell membranes, partially purified extract
The test can be described thus: Gamma-secretase APP enzyme assay (Example A). Format: biochemical. Particulars: class symbols; assay described in Example A; read-out: γAPP IC50. The text has this: The gamma-secretase APP enzyme assay was designed to measure the specific proteolytic cleavage of an APP substrate (MBP-C125 Swe fusion protein) at the Aβ40 site. […] This assay involved two steps beginning with the enzymatic reaction generating a cleavage product that was captured with an immobilized antibody specific for the neo-epitope Aβ40 site. The captured cleavage product was then detected in a sandwich ELISA assay with a biotinylated reporter antibody that is specific to Aβ(17-28). Streptavidin-linked alkaline phosphatase was then added that would generate a fluorescent signal proportional to the amount of cleavage product.
This warmed solution of BigCHAPS (N,N-Bis(3-D-gluconamidopropyl)cholamide) detergent was used to dissolve Brain Extract Type-V (lipid containing a minimum of 40% phosphatidylethanolamine) from Sigma (St. Louis, Mo.) to a concentration of 8 mg/ml. This solution containing BigCHAPS and lipid at 8 mg/ml is then diluted to 0.53 mg/ml lipid with a pre-warmed solution of Hepes and sodium chloride.
Gamma-secretase was then added to a 96-well micro-titre plate and then incubated with various concentrations of inhibitor for 30 minutes at 37° C. MBPC125 substrate was then added to initiate the reaction that would run for two hours at 37° C. The reaction was quenched with the addition of SDS to a final concentration of 0.1% and then 100 μl of the reaction mixture was transferred to a capture ELISA plate and incubated overnight at 4° C. Detection of the cleavage product was performed using a standard sandwich ELISA assay and quantified using a six point standard curve.
Consider `O=S(=O)(c1ccc(C(F)(F)F)cc1)N1C2Cc3[nH]ncc3C1c1ccccc12` (racemic) [compound 52], for which the pIC50 is greater than 7.00. Consider `O=S(=O)(c1ccc(C(F)(F)F)cc1)N1C2C=C(c3ccc(F)cc3)C1c1cn[nH]c1C2` (racemic) [compound 59], for which the pIC50 was 6.30 to 7.00. On the same count and under the same terms, next, `O=S(=O)(c1ccc(C(F)(F)F)cc1)N1C2Cc3[nH]ncc3C1c1ccccc12` (racemic) [compound 73]: greater than 7.00; `O=S(=O)(c1ccc(C(F)(F)F)cc1)N1C2c3ccccc3C1C(F)(F)c1[nH]ncc12` (racemic) [compound 74]: greater than 7.00; `Cc1cc(C2CC3Cc4[nH]ncc4C(C2)N3S(=O)(=O)c2ccc(Cl)cc2)on1` (racemic) [compound 76]: greater than 7.00. Still for that read-out and setting: to `Cc1nc(C2CC3Cc4[nH]ncc4C(C2)N3S(=O)(=O)c2ccc(C(F)(F)F)cc2)n(C)n1` (racemic) [compound 80] belongs 6.00 to 6.30. The same measure, in the same setting: next, `Cc1nc(C2CC3Cc4[nH]ncc4C(C2)N3S(=O)(=O)c2ccc(C(F)(F)F)cc2)n[nH]1` (racemic) [compound 85]: less than 6.00; `O=S(=O)(c1ccc(C(F)(F)F)cc1)N1C2Cc3[nH]ncc3C1c1cc3c(cc12)OCO3` (racemic) [compound 91]: greater than 7.00; `O=S(=O)(c1ccc(Cl)cc1)N1C2Cc3[nH]ncc3C1CC(c1c[nH]nn1)C2` (racemic) [compound 93]: greater than 7.00.

As to `O=S(=O)(c1ccc(C(F)(F)F)cc1)N1C2Cc3[nH]ncc3C1c1cccc(F)c12` (racemic) [compound 97], the pIC50 is greater than 7.00. Still for that read-out and setting: next, `O=S(=O)(c1ccc(C(F)(F)F)nc1)N1C2Cc3n[nH]cc3C1c1cc(F)c(F)cc12` (racemic) [compound 105]: greater than 7.00. On the same count and under the same terms, next, `O=S(=O)(c1ccc(C(F)(F)F)cc1)N1C2Cc3[nH]ncc3C1CC(c1nnn[nH]1)C2` (racemic) [compound 126]: less than 6.00. Same read-out and setting: to `Cn1nncc1C1CC2Cc3[nH]ncc3C(C1)N2S(=O)(=O)c1ccc(Cl)cc1` (racemic) [compound 136] belongs greater than 7.00; to `O=C1COCCN1c1ccc(C2CC3Cc4[nH]ncc4C(C2)N3S(=O)(=O)c2ccc(C(F)(F)F)cc2)cc1` (racemic) [compound 143], 6.00 to 6.30. Take `O=C(O)COCCNc1ccc(C2CC3Cc4[nH]ncc4C(C2)N3S(=O)(=O)c2ccc(C(F)(F)F)cc2)cc1` (racemic) [compound 145]: the pIC50 is greater than 7.00. On the same count and under the same terms, next, `O=S(=O)(c1ccc(C(F)(F)F)cc1)N1C2Cc3[nH]ncc3C1CC(c1ccc(-n3cncn3)cc1)C2` (racemic) [compound 147]: 6.30 to 7.00. The same measure, in the same setting: next, `Cc1cc(F)cc2c1C1c3c[nH]nc3CC2N1S(=O)(=O)c1ccc(C(F)(F)F)nc1` (racemic) [compound 151]: greater than 7.00.

Take `CC(=O)Nc1ccc(C2CC3Cc4[nH]ncc4C(C2)N3S(=O)(=O)c2ccc(C(F)(F)F)cc2)cc1` (racemic) [compound 152]: the negative-log IC50 (pIC50) was greater than 7.00. Regarding `O=C1CCN1c1ccc(C2CC3Cc4[nH]ncc4C(C2)N3S(=O)(=O)c2ccc(C(F)(F)F)cc2)cc1` (racemic) [compound 153], the pIC50 is greater than 7.00. Still for that read-out and setting: next, `CC(=O)c1ccc(C2CC3Cc4[nH]ncc4C(C2)N3S(=O)(=O)c2ccc(C(F)(F)F)cc2)cc1` (racemic) [compound 154]: 6.30 to 7.00; `O=S(=O)(c1ccc(C(F)(F)F)cc1)N1C2Cc3[nH]ncc3C1c1cc(C(F)(F)F)ccc12` (racemic) [compound 155]: greater than 7.00; `O=S(=O)(c1ccc(C(F)(F)F)cc1)N1C2Cc3[nH]ncc3C1c1ccc(C(F)(F)F)cc12` (racemic) [compound 156]: greater than 7.00. `O=S(=O)(c1ccc(C(F)(F)F)nc1)N1C2c3cc(F)c(F)cc3C1C(F)(F)c1[nH]ncc12` (racemic) [compound 157]: the pIC50 was greater than 7.00. For `O=S(=O)(c1ccc(C(F)(F)F)cc1)N1C2Cc3[nH]ncc3C1c1cccc(-c3ccc(F)cc3)c1C2` (racemic) [compound 162], the pIC50 is greater than 7.00. The same measure, in the same setting: to `O=S(=O)(c1ccc(C(F)(F)F)cc1)N1C2Cc3[nH]ncc3C1Cc1ccccc12` (racemic) [compound 163] belongs greater than 7.00; to `O=S(=O)(c1ccc(C(F)(F)F)cc1)N1C2Cc3ccccc3C1c1cn[nH]c1C2` (racemic) [compound 164], greater than 7.00.

On to `O=S(=O)(c1ccc(C(F)(F)F)cc1)N1C2Cc3c(-c4ccc(F)cc4)cccc3C1Cc1[nH]ncc12` (racemic) [compound 165], for which the pIC50 is greater than 7.00. Same read-out and setting: next, `O=S(=O)(c1ccc(C(F)(F)F)nc1)N1C2Cc3[nH]ncc3C1c1cc(F)ccc12` (racemic) [compound 176]: greater than 7.00; `O=S(=O)(c1ccc(C(F)(F)F)cc1)N1C2Cc3[nH]ncc3C1c1cccc(-c3cccc(C(F)(F)F)c3)c1C2` (racemic) [compound 178]: greater than 7.00. Turning to `O=S(=O)(c1ccc(C(F)(F)F)cc1)N1C2Cc3cccc(F)c3C1Cc1n[nH]cc12` (racemic) [compound 181], the pIC50 is greater than 7.00. Turning to `O=S(=O)(c1ccc(C(F)(F)F)cc1)N1C2Cc3cccc(F)c3C1c1cn[nH]c1C2` (racemic) [compound 182], the pIC50 is greater than 7.00.

For the compound `COC(=O)c1ccc2c(c1)C1c3cn[nH]c3CC2N1S(=O)(=O)c1ccc(C(F)(F)F)nc1` (racemic) [compound 194], the negative-log IC50 (pIC50) is less than 6.00.

As to `O=S(=O)(c1ccc(Cl)cc1)N1C2Cc3[nH]ncc3C1c1c(F)cccc12` (racemic) [compound 209], the negative logarithm of the IC50 (pIC50) is greater than 7.00. On the same count and under the same terms, to `O=S(=O)(c1ccc(F)cc1)N1C2Cc3[nH]ncc3C1c1c(F)cccc12` (racemic) [compound 210] belongs greater than 7.00.

Turning to `O=S(=O)(c1ccc(C(F)(F)F)cn1)N1C2Cc3[nH]ncc3C1c1c(F)cccc12` (racemic) [compound 211], the pIC50 is greater than 7.00. The same measure, in the same setting: next, `O=S(=O)(c1ccc(C(F)(F)F)nc1)N1C2Cc3[nH]ncc3C1c1cc(Cl)ccc12` (racemic) [compound 219]: greater than 7.00; `COC(=O)c1cccc2c1C1Cc3[nH]ncc3C2N1S(=O)(=O)c1ccc(C(F)(F)F)nc1` (racemic) [compound 220]: greater than 7.00; `O=S(=O)(c1ccc(C(F)(F)F)nc1)N1C2Cc3[nH]ncc3C1c1cc(O)ccc12` (racemic) [compound 225]: greater than 7.00. On to `COC(=O)c1cccc2c1C1Cc3[nH]ncc3C2N1S(=O)(=O)C1=CC=C(C(F)(F)F)NC1` (racemic) [compound 253], for which the pIC50 was greater than 7.00. Same read-out and setting: to `O=S(=O)(c1ccc(C(F)(F)F)nc1)N1C2Cc3[nH]ncc3C1c1cccc(CF)c12` (racemic) [compound 257] belongs greater than 7.00; to `O=C1c2[nH]ncc2C2c3cccc(Cl)c3C1N2S(=O)(=O)c1ccc(C(F)(F)F)nc1` (racemic) [compound 264], greater than 7.00.

Take `O=S(=O)(c1ccc(C(F)(F)F)nc1)N1C2Cc3[nH]ncc3C1c1cccc(-c3ccc(F)cc3)c12` (racemic) [compound 266]: the pIC50 is greater than 7.00.

For `O=S(=O)(c1ccc(C(F)(F)F)nc1)N1C2Cc3[nH]ncc3C1c1cccc(C3CC3)c12` (racemic) [compound 270], the pIC50 was greater than 7.00.

Consider `O=S(=O)(c1ccc(C(F)(F)F)nc1)N1C2Cc3[nH]ncc3C1c1c(C3CC3)cccc12` (racemic) [compound 274], for which the pIC50 was greater than 7.00. For the compound `O=S(=O)(c1ccc(C(F)(F)F)cc1)N1C2Cc3[nH]ncc3C1c1cccnc12` (single isomer, unassigned) [compound 99], the pIC50 is less than 6.00. On the same count and under the same terms, next, `O=S(=O)(c1ccc(C(F)(F)F)cc1)N1C2Cc3[nH]ncc3C1c1ncccc12` (single isomer, unassigned) [compound 101]: greater than 7.00; `O=S(=O)(c1ccc(C(F)(F)F)cc1)N1C2Cc3[nH]ncc3C1c1ncccc12` (single isomer, unassigned) [compound 102]: 6.00 to 6.30; `O=S(=O)(c1ccc(C(F)(F)F)nc1)N1C2Cc3n[nH]cc3C1c1cc(F)c(F)cc12` (single isomer, unassigned) [compound 110]: less than 6.00. The same measure, in the same setting: next, `O=S(=O)(c1ccc(C(F)(F)F)nc1)N1C2Cc3n[nH]cc3C1c1cc(F)c(F)cc12` (single isomer, unassigned) [compound 111]: greater than 7.00.

Still in this test, the particulars now being: numeric bounds given instead of class symbols; assay described in Example A; read-out: γAPP IC50.
In the case of `O=c1oc2cc3c(cc2o1)C1c2cn[nH]c2CC3N1S(=O)(=O)c1ccc(C(F)(F)F)cc1` (racemic) [compound 109], the pIC50 is less than 7.00. On the same count and under the same terms, to `O=S(=O)(c1ccc(C(F)(F)F)nc1)N1C2Cc3[nH]ncc3C1c1c(-c3ccc(F)cc3)cccc12` (racemic) [compound 273] belongs less than 7.00.

Still in this test, the particulars now being: γAPP IC50 (nM), class symbols; assay described in Example A.
`Cn1ncc2c1C1Cc3[nH]ncc3C2N1S(=O)(=O)c1ccc(C(F)(F)F)nc1` (racemic) [compound 204] gave an IC50 of less than 100 nM. Turning to `O=S(=O)(c1ccc(C(F)(F)F)nc1)N1C2Cc3[nH]ncc3C1c1ncc(F)cc12` (racemic) [compound 258], the IC50 is less than 100 nM.

A word on the pIC50: it is the IC50 on a negative log10 scale, so that one unit is a factor of ten. Broadly, the IC50 is the point on the concentration scale where inhibition reaches its midpoint.

The record behind these values is patent US8283358B2, “N-sulfonamido polycyclic pyrazolyl compounds” (Elan Pharmaceuticals, Inc., priority 2008, dated 2012).
